Counter-ions that a name gives are not always drawn.

One series concerns skin erythema (sunburn). Nature of the series: Effect for preventing skin sunburn caused by UV rays irradiation (in vivo). The arrangement: species or system albino guinea pig (Hartley strain, female). As to conditions: 3% test compound solution, 24 hours after UV irradiation; for (C): Δa value of test section of skin coated with test compound solution: 10 μl; for Inhibitory ratio of skin erythema (%) / inhibition in vivo at 3 %: {1-[(C)/(D)]}×100; for inhibition in vivo at 3 %: Cavia porcellus, light or radiation study, topical, 24 h, read-out: Inhibitory ratio of skin erythema (%). On the procedure:
(2) Effect for preventing skin sunburn caused by UV rays irradiation (in vivo)
This test is an experimental model of quantitative evaluation of effect for preventing skin sunburn, caused by UV rays irradiation, performed by the test compound. [Test was conducted by a modified method according to the procedures of J. Dermatol. Vol. 17, pp. 595-598, (1990).]
Hairs on the back of an albino guinea pig (Hartley strain, female, age of 7-8 weeks) were shaved by use of an electric hair clipper and an electric shaver. Next day, the guinea pig was fixed on a Bowlman cage, a piece of shading tape (a plaster for patch test) having 4 circular holes of 1.5 cm in diameter was put on the shaved portion of the skin, and predetermined 2 sections of UV rays irradiation. One section (reference section) was coated with 10 μl of a solvent (water or 50% ethanol-water solution). Another section (test section) was coated with 10 μl of 3% test compound solution (aqueous or 50% ethanol-water solution). 30 Minutes after the coating, UV rays of 1.3-1.5 mW/cm^2 in strength was irradiated for 30 minutes by use of a fluorescent lamp of healthy light (TOSHIBA FL-20.cndot.SE) as a light source. 24 Hours after the irradiation, the reference section (coated with the solvent only) and the test section (coated with test compound solution) were observed respectively, and the erythrochromia (Δa value) on both reference section and test section were measured by use of a color difference meter (OFC-300A Type, mfd. by NIHON DENSHOKU KOGYO CO., LTD). The inhibitory ratio of skin erythema (sunburn) performed by the test compound was calculated from the following formula.
Inhibitory ratio of skin erythema (sunburn) (%)={1-[(C)/(D)]}×100
(C): Δa Value of test section of skin coated with test compound solution,
(D): Δa Value of reference section of skin coated with the solvent only, and
Δa value: difference of skin erythema on the portion irradiated with UV rays].

Series [1] concerns skin reaction (erythema and edema). Put plainly: Skin sensitization test (Adjuvant and strip test), photosensitization. Format: in vivo, Albino guinea pigs (Hertley strain, female). The settings on record: 3% test compound solution, open-coated; observed 24 hours and 48 hours; [(G)/(H)]×100. The source says: (4) Skin sensitization test [Adjuvant and strip test: J. Invest. Dermatol., Vol. 76, pp 498-501, (1981)]
This test was used as experimental model for evaluating the existence of toxicity of photosensitization to the skin performed by the test compounds.
(i) Procedure for inducing photosensitization
Albino guinea pigs (Hertley strain, female, age of 5-6 weeks) were used. Hairs of the nuchal area of the guinea pig were shaved, and designated the test sample coating section having 2×4 cm in size. At the four corners of the test sample coating section, 0.1 ml each of E-FCA (an emulsion consisting of the same volume each of Freund's complete adjuvant with sterilized distilled water) were intracutaneouly injected. The coating section was subjected to striping repeatedly by use of Cellophane tape until the section turned to slightly erythema, then 0.1 ml of test compound solution (aqueous or 50% ethanol-water solution) of 3% in concentration was open-coated on the section. 30 Minutes after the coating, UV rays of about 10 J/cm^2 in dosage was irradiated by use of a fluorescent lamp of healthy light (TOSHIBA FL-20S-BLB) as a light source. The above-mentioned procedure was carried out once a day, and continuously conducted for 5 days, provided that E-FCA was administered only on the first day.
(ii) Procedure for introducing sensitization
3 Weeks after the beginning of induction period of photosensitization, the covering hairs on the back of guinea pig were shaved, and determined a circular section, having 1.5 cm in diameter, for coating test samples, and 20 μl of test compound solution (aqueous or 50% ethanol-water solution) of 3% in concentration was open-coated on the section. The test sample coated section was observed 24 hours and 48 hours, and examined existences of skin reaction (erythema and edema). In case of skin reaction was appeared, then it was determined as positive reaction in skin sensitization which was defined as a positive ratio (%) calculated from the following formula.
Positive ratio (%)=[(G)/(H)]×100
(G): Number of positive reactions in skin sensitization and
(H): Number of total animal tests].

The test system of another series is skin pigmentation. Put plainly: Effect for preventing skin pigmentation caused by UV rays irradiation. Format: in vivo, colored guinea pig (A-1 strain, female). The settings on record: 3% test compound solution, 14 days after UV irradiation; for (E): ΔL value of brightness of the skin coated with test compound solution (test section): 10 μl/cm^2; for Inhibitory ratio of skin pigmentation (%): {1-[(E)/(F)]}×100. The protocol:
(3) Effect for preventing skin pigmentation caused by UV rays irradiation This is an experimental model of quantitative evaluation of effect for preventing skin pigmentation caused by UV rays irradiation performed by test compound. [Test was conducted by a modified method according to procedures of J. Dermatol. Vol. 17, pp. 595-598,(1990).] Hairs on the back of a colored guinea pig (A-1 strain, female, age of 8-10 weeks) were shaved and the body of guinea pig was fixed on a Bowlman cage, and predermined 2 sections of UV rays irradiation. […] The inhibitory ratio of the skin pigmentation (%) performed by the test compound was calculated from the following formula. […] [wherein (E): ΔL value of brightness of the skin coated with test compound solution (test section), (F): ΔL value of brightness of the skin coated the solvent (reference section), and ΔL value: difference of brightness of the skin between the portion without irradiated and the portion irradiated with UV rays].

The nature of series [2]: DPPH free radical extinction activity test. Type of series: biochemical. The settings on record: relative to α-tocopherol (= 2); 5 μl of 10 mM test compound, 30° C., 30 minutes, pH 5.5 buffer, 517 nm. The protocol: (1) DPPH free radical extinction activity test
The test was conducted by procedures according to the method by Marsden S. Blois [Nature, Vol. […], 1199-1200, (1958)].
Into 0.5 ml of 200 mM of acetic acid buffer solution (pH 5.5) were added 0.5 ml of distilled water, 0.5 ml of ethanol and 5 μl of 10 mM of the test compound solution (an ethanol solution, a dimethylformamide solution or an aqueous solution), and stirred at 30° C. for 5 minutes. To this mixed solution was added 1.5 ml of an ethanol solution of 250 μM of 1,1-diphenyl-2-picrylhydrazyl (DPPH), this mixture was incubated at 30° C. for 30 minutes. After the incubation, the optical absorbance (at 517 nm) of this reaction mixture was measured, and the number of captured free radicals of DPPH was calculated from the ratio of optical absorbance of test compound and that of α-tocopherol (standard substance: the number of captured free radicals: 2) by the following formula: […]
Number of captured free radicals of DPPH performed by test
(A): optical absorbance of the test sample, and
(B): optical absorbance of α-tocopherol].

The conditions of series [3]: assigned value of the standard α-tocopherol; cited from earlier work.

For `C=CCOc1cc(CN2CCCCC2)c(O)c2c1NC(=O)CC2` [Example 33], in the series with skin erythema (sunburn), the “(C): Δa value of test section of skin coated with test compound solution” value (“(C): Δa value” for short) is reported as 3.96 ± 1.02 and the “Inhibitory ratio of skin erythema (%)” value turned out to be 49%. In series [1], the “Positive ratio (%)” value stood at 0%. In the series with skin pigmentation, the “(E): ΔL value of brightness of the skin coated with test compound solution (test section)” value (“(E): ΔL value” below) is given as -2.61 ± 2.98 and the “Inhibitory ratio of skin pigmentation (%)” value is recorded as 55%. Moreover, in series [2], the “Number of captured free radicals of DPPH” value stood at 1.5.

Regarding `Cc1cc2c(c(CN3CCCC3)c1O)NC(=O)CC2` [Example 25], in the series with skin erythema (sunburn), the “(C): Δa value” value worked out at 3.31 ± 2.00 and the inhibition in vivo at 3 % is 64%. For the same compound, in series [1], the “Positive ratio (%)” value is given as 0%. Besides, in the series on skin pigmentation, the “(E): ΔL value” value is listed as -5.02 ± 2.02 and the “Inhibitory ratio of skin pigmentation (%)” value is on record as 38%. Besides, the “Number of captured free radicals of DPPH” value in series [2] is 1.

Turning to `C=CCOc1cc(CN(C)C)c(O)c2c1NC(=O)CC2` [Example 18, 8-allyloxy-3,4-dihydro-5-hydroxy-6-dimethyl-aminomethyl-2(1H)-quinolinone hydrochloride], in the series with skin erythema (sunburn), the “(C): Δa value” value is 3.87 ± 2.45 and the inhibition in vivo at 3 % came to 51%. Further, in series [1], the “Positive ratio (%)” value is 0%. In the series on skin pigmentation, the “(E): ΔL value” value is reported as -3.53 ± 1.24 and the “Inhibitory ratio of skin pigmentation (%)” value was 49%. Besides, the “Number of captured free radicals of DPPH” value in series [2] was determined as 1.5.

As for `Cc1c(C)c2c(c(C)c1O)CCC(C)(CCCC(C)CCCC(C)CCCC(C)C)O2` (stereo not drawn) [α-tocopherol], in series [3], the “number of captured free radicals (standard substance)” value is reported as 2.

For `C=CCOc1cc(CN2CCCCC2)c(O)c2c1NC(=O)CC2` [Example 28, 8-allyloxy-3,4-dihydro-5-hydroxy-6-(1-piperidinyl)methyl-2(1H)-quinolinonehydrochloride], in the series on skin erythema (sunburn), the “(C): Δa value” value is 1.13 ± 0.58 and the “Inhibitory ratio of skin erythema (%)” value stood at 78%. Moreover, in series [1], the “Positive ratio (%)” value was found to be 0%. Besides, in the series on skin pigmentation, the “(E): ΔL value” value is listed as -4.51 ± 1.87 and the “Inhibitory ratio of skin pigmentation (%)” value is on record as 43%. The “Number of captured free radicals of DPPH” value in series [2] came out at 2.

Consider `Cl.O=c1ccc2c(CN3CCCC3)c(O)ccc2[nH]1` [Example 22, 6-hydroxy-5-(1-pyrrolidinyl)methyl-2(1H)-quinolinone hydrochloride], for which, in the series with skin erythema (sunburn), the “(C): Δa value” value is reported as 5.51 ± 2.32 and the inhibition in vivo at 3 % turned out to be 37%. The “Positive ratio (%)” value in series [1] is given as 0%. In series [2], the “Number of captured free radicals of DPPH” value stood at 1.5.

In the case of `CCN(CC)Cc1cc(C)c2c(c1O)CCC(=O)N2` [Example 9, 5-Hydroxy-6-diethylaminomethyl-8-methyl-3,4-dihydro-2(1H)-quinolinone], in the series on skin erythema (sunburn), the “(C): Δa value” value was 4.69 ± 1.62 and the inhibition in vivo at 3 % came to 38%. Further, the “Positive ratio (%)” value in series [1] worked out at 0%. The “Number of captured free radicals of DPPH” value in series [2] amounted to 1.

With `COc1cc(CN(C)C)c(O)c2c1NC(=O)CC2.Cl` [Example 35, 6-(dimethylaminomethyl)-3,4-dihydro-5-hydroxy-8-methoxy-2(1H)-quinolinone hydrochloride], in the series on skin erythema (sunburn), the “(C): Δa value” value stood at 3.61 ± 2.91 and the inhibition in vivo at 3 % amounted to 51%. The “Positive ratio (%)” value in series [1] came to 0%. In addition, in the series with skin pigmentation, the “(E): ΔL value” value was -4.44 ± 2.17 and the “Inhibitory ratio of skin pigmentation (%)” value was 35%. In addition, the “Number of captured free radicals of DPPH” value in series [2] is on record as 1.5.

Turning to `CCCOc1cc(CN2CCCCC2)c(O)c2c1NC(=O)CC2.Cl` [Example 30, 3,4-dihydro-8-propyloxy-5-hydroxy-6-(1-piperidinyl)methyl-2(1H)-quinolinone hydrochloride], in the series on skin erythema (sunburn), the “(C): Δa value” value was 4.73 ± 1.94 and the inhibition in vivo at 3 % was determined as 40%. Besides, the “Positive ratio (%)” value in series [1] worked out at 0%. In the series on skin pigmentation, the “(E): ΔL value” value is reported as -3.40 ± 1.18 and the “Inhibitory ratio of skin pigmentation (%)” value stood at 50%. In addition, the “Number of captured free radicals of DPPH” value in series [2] worked out at 2.

`O=C1CCc2c(O)c(CN3CCCC3)cc(OC3CCCCO3)c2N1` (stereo not shown) [Example 47]: in the series on skin erythema (sunburn), the “(C): Δa value” value is 0.88 ± 0.29 and the inhibition in vivo at 3 % was determined as 76%. In addition, in series [1], the “Positive ratio (%)” value is recorded as 0%. Also, in the series with skin pigmentation, the “(E): ΔL value” value is -4.89 ± 1.24 and the “Inhibitory ratio of skin pigmentation (%)” value came out at 38%. Besides, the “Number of captured free radicals of DPPH” value in series [2] turned out to be 3.5.

For the compound `CCN(CC)Cc1ccc2c(c1O)CCC(=O)N2` [Example 13, 6-diethylaminomethyl-5-hydroxy-3,4-dihydrocarbostyril], in the series on skin erythema (sunburn), the “(C): Δa value” value was determined as 3.93 ± 0.92 and the inhibition in vivo at 3 % was determined as 42%. Moreover, in series [1], the “Positive ratio (%)” value was found to be 0%. The “Number of captured free radicals of DPPH” value in series [2] is listed as 1.

For `C=CCOc1cc(CN2CCCCC2)c(O)c2c1N(CC=C(C)C)C(=O)CC2` [Example 32], in the series on skin erythema (sunburn), the “(C): Δa value” value was determined as 2.17 ± 0.97 and the inhibition in vivo at 3 % came out at 64%. Moreover, the “Positive ratio (%)” value in series [1] came out at 0%. In addition, in the series with skin pigmentation, the “(E): ΔL value” value is reported as -3.37 ± 2.36 and the “Inhibitory ratio of skin pigmentation (%)” value came to 42%. Besides, in series [2], the “Number of captured free radicals of DPPH” value is on record as 1.

Values taken from patent publication US6133264A, “Carbostyril derivatives for inhibiting skin erythema and/or skin pigmentation” (Otsuka Pharmaceutical Co., Ltd., priority 1997, dated 2000).
